One test deals with T1, BCL-2 (Homo sapiens, UniProt P10415).
T1 construct: purchased Cisbio 63ADK000CB01PEG
Description: HTRF BCL-2/BAK assay (Cisbio). In kind it is binding. Particulars: recombinant human Tag1-BCL-2 2 nM, Tag2-BAK 10 nM. As to the method:
(§1) Then the pre-mixed anti-Tag1-Eu^3+ and anti-tag2-XL665 were added to the plate and further incubated at room temperature for another 2 hours. The signals ([…]) were read on Envision 2104 instrument. The IC50 for each compound was derived from fitting the signal of 665/615 nM to the increasing compound concentration.
(§2) Using the above assays, the following compounds were tested.

The next test deals with T2, BCL-XL (Homo sapiens, UniProt Q07817).
T2 construct: purchased Cisbio 63ADK000CB04PEG
Description: HTRF BCL-XL/BAK assay (Cisbio). Particulars: recombinant human Tag1-BCL-XL 2 nM, Tag2-BAK 5 nM. In kind it is binding. As to the method: as §1, §2

The next test deals with DOHH2 cells. Description: CellTiter-Glo cell proliferation assay, DOHH2 cells. The format is cell-based. To be noted: Homo sapiens, DOHH-2, 72 hours. An outline of the steps:
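GI50 derived from CellTiter-Glo luminescent viability signal. Cells grown in DMEM with 10% FBS received a compound dilution series for 72 h (37 °C, 5% CO2).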

T2 sequence (Q07817 whole entry): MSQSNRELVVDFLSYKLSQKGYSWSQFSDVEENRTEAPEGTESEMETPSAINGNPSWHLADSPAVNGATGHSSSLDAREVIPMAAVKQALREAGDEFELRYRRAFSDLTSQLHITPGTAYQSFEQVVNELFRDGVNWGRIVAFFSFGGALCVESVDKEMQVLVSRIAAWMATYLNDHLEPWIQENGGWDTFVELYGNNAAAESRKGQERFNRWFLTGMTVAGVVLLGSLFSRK
T1 sequence (P10415 whole entry): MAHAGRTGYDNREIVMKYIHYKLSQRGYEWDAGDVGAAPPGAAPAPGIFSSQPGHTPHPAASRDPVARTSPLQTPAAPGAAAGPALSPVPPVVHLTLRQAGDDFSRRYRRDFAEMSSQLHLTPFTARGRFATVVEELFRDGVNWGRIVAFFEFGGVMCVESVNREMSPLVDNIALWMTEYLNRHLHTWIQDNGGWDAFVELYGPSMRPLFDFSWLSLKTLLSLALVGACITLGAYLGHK

Turning to `O=C(NS(=O)(=O)c1ccc(NCC2CC3(COC3)C2)c([N+](=O)[O-])c1)c1ccc(N2CCN([C@@H]3CCCCc4c3cccc4[N+](=O)[O-])CC2)cc1Oc1cnc2[nH]ccc2c1` [Compound 75, (R)-2-((1H-pyrrolo[2,3-b]pyridin-5-yl)oxy)-N-((4-(((2-oxaspiro[3.3]heptan-6-yl)methyl)amino)-3-nitrophenyl)sulfonyl)-4-(4-(1-nitro-6,7,8,9-tetrahydro-5H-benzo[7]annulen-5-yl)piperazin-1-yl)benzamide], the IC50 on BCL-2 was under 20 nM; at BCL-XL, 20 to 200 nM. This compound showed a GI50 in the test with DOHH2 cells of under 50 nM.

For `O=C(NS(=O)(=O)c1ccc(NCC2CCOCC2)c([N+](=O)[O-])c1)c1ccc(N2CCN(C3COCc4ccccc43)CC2)cc1Oc1cnc2[nH]ccc2c1` (stereo not drawn) [Compound 12, 2-((1H-pyrrolo[2,3-b]pyridin-5-yl)oxy)-4-(4-(isochroman-4-yl)piperazin-1-yl)-N-((3-nitro-4-(((tetrahydro-2H-pyran-4-yl)methyl)amino)phenyl)sulfonyl)benzamide], the 50% inhibitory concentration (IC50) was 20 to 200 nM at BCL-2 and over 2000 nM on BCL-XL. The GI50 in the test with DOHH2 cells was in the range of 500 to 5000 nM.

Regarding `CC(=O)N1CCN(CCNc2ccc(S(=O)(=O)NC(=O)c3ccc(N4CCN(C5CCCCc6c(Cl)cccc65)CC4)cc3Oc3cnc4[nH]ccc4c3)cc2[N+](=O)[O-])CC1` (stereo not drawn) [Compound 39, 2-((1H-pyrrolo[2,3-b]pyridin-5-yl)oxy)-N-((4-((2-(4-acetylpiperazin-1-yl)ethyl)amino)-3-nitrophenyl)sulfonyl)-4-(4-(1-chloro-6,7,8,9-tetrahydro-5H-benzo[7]annulen-5-yl)piperazin-1-yl)benzamide], the IC50 is under 20 nM on BCL-2 and 20 to 200 nM at BCL-XL. In addition, the 50% growth inhibitory concentration (GI50) in the test with DOHH2 cells is under 50 nM.

As for `O=C(NS(=O)(=O)c1ccc(NCC2CCOCC2)c([N+](=O)[O-])c1)c1ccc(N2CCN([C@@H]3CCCCc4c(Br)cccc43)CC2)cc1Oc1cnc2[nH]ccc2c1` [Compound 66, (R)-2-((1H-pyrrolo[2,3-b]pyridin-5-yl)oxy)-4-(4-(1-bromo-6,7,8,9-tetrahydro-5H-benzo[7]annulen-5-yl)piperazin-1-yl)-N-((3-nitro-4-(((tetrahydro-2H-pyran-4-yl)methyl)amino)phenyl)sulfonyl)benzamide], the IC50 on BCL-2 is under 20 nM; at BCL-XL, 20 to 200 nM. The same compound yielded a GI50 with DOHH2 cells of under 50 nM.

For `O=C(NS(=O)(=O)c1ccc(NCC2CC3(CCNCC3)C2)c([N+](=O)[O-])c1)c1ccc(N2CCN([C@@H]3CCCCc4c(Cl)cccc43)CC2)cc1` [Compound 117, (R)-N-((4-(((7-azaspiro[3.5]nonan-2-yl)methyl)amino)-3-nitrophenyl)sulfonyl)-4-(4-(1-chloro-6,7,8,9-tetrahydro-5H-benzo[7]annulen-5-yl)piperazin-1-yl)benzamide], the concentration for half-maximal inhibition (IC50) at BCL-2 and at BCL-XL was 20 to 200 nM throughout. This compound gave a GI50 in the test on DOHH2 cells of over 5000 nM.

Take `O=C(NS(=O)(=O)c1ccc(NCC2CCOCC2)c([N+](=O)[O-])c1)c1ccc(N2CCN([C@@H]3CCCCc4c3cccc4[N+](=O)[O-])CC2)cc1Oc1cnc2[nH]ccc2c1` [Compound 73, (R)-2-((1H-pyrrolo[2,3-b]pyridin-5-yl)oxy)-N-((3-nitro-4-(((tetrahydro-2H-pyran-4-yl)methyl)amino)phenyl)sulfonyl)-4-(4-(1-nitro-6,7,8,9-tetrahydro-5H-benzo[7]annulen-5-yl)piperazin-1-yl)benzamide]: the IC50 was under 20 nM on BCL-2 and 20 to 200 nM on BCL-XL. For the same compound, the concentration for 50% growth inhibition (GI50) in the test on DOHH2 cells is 50 to 500 nM.

As for `O=C(NS(=O)(=O)c1ccc(NCC2CCC3(CC2)COC3)c([N+](=O)[O-])c1)c1ccc(N2CCN([C@@H]3CCCCc4c3cccc4[N+](=O)[O-])CC2)cc1Oc1cnc2[nH]ccc2c1` [Compound 74, (R)-2-((1H-pyrrolo[2,3-b]pyridin-5-yl)oxy)-N-((4-(((2-oxaspiro[3.5]nonan-7-yl)methyl)amino)-3-nitrophenyl)sulfonyl)-4-(4-(1-nitro-6,7,8,9-tetrahydro-5H-benzo[7]annulen-5-yl)piperazin-1-yl)benzamide], the IC50 on BCL-2 is under 20 nM; on BCL-XL it was 20 to 200 nM. The GI50 in the test on DOHH2 cells was under 50 nM.

What is called IC50 is the concentration at which inhibition is half-maximal. Broadly, the GI50 is the concentration that inhibits growth by half.

The record behind these values is US20240239792A1, “MODULATORS OF BCL-2 OR BCL-2/BCL-XL AND USES THEREOF” (APPICINE THERAPEUTICS (HK) LIMITED, priority 2021, published 2024).
